Assay results from publication PMC6270263, “Factors Influencing the Antifolate Activity of Synthetic Tea-Derived Catechins” (Molecules, 2013).
Where two headings read alike, the source gives them in different places.

Tests used:
[1] = tested on: SK-MEL-28 melanoma cell line; test: MTT cell proliferation assay in melanoma cells; format: cell-based, human; details: SK-MEL-28, after 6 days of treatment, read-out: Half-maximal inhibitory concentration (IC50)
Excerpt: Antifolate compounds are designed to inhibit DHFR and act specifically during DNA and RNA synthesis, making them more toxic to rapidly dividing cells. Recent evidences indicate that tea-catechins and derived compounds could inhibit DHFR and block the folate cycle in cancer cells. Although inhibition of DHFR by these compounds could be a plausible explanation for their antifolate activity, the possibility of these compounds targeting (folate)-enzymes other than DHFR could not be excluded. To determine whether these newly synthetized compounds disrupt the folate cycle in cell culture, we studied their antiproliferative activity in the melanoma cell line SK-MEL-28 (Table 3). Concentration- and time-dependent effects were analyzed using the colorimetric 4,5-(3)-dimethylthiazol-2-yl)-2,5-diphenyltetrazolium bromide (MTT) method.
The human melanoma cell line SK-MEL-28 was obtained from American Type Culture Collection (ATCC, Manassas, VA, USA) and was maintained in Eagles’s Minimum Essential Medium (EMEM) supplemented with 10% (v/v) FBS and antibiotics at 37 °C in a humidified atmosphere containing 7.5% CO2. Cell viability was evaluated using the MTT cell proliferation assay. Cells were evaluated for apoptosis using a cell death detection ELISA (Cell Death Detection ELISAPLUS, Roche Diagnostics, Barcelona, Spain). The principle of this test is the detection of mono- and oligonucleosomes in the cytoplasmic fractions of cell lysates using biotinylated anti-histone and peroxidase-coupled anti-DNA antibodies. The amount of nucleosomes is photometrically quantified at 405 nm by the peroxidase activity retained in the immunocomplexes. Apoptosis was defined as the specific enrichment of mono- and oligonucleosomes in the cytoplasm and was calculated by dividing the absorbance of treated samples with the absorbance of untreated samples after correcting for the number of cells. The induction of apoptosis in each melanoma cell line after a 7 h treatment with 2 μM staurosporin (100% apoptotic cells) was used to calculate the number of apoptotic cells. For these assays, cells were plated in a 96-well plate at a density of 1000–2000 cells/well. Compounds were added once at the beginning of the experiments.

[2] = target: T1, free recombinant human DHFR (rHDHFR) (Homo sapiens, UniProt P00374); test: Binding of polyphenols to free rHDHFR by fluorescence quenching titration
T1 construct: made in house; host or cells: Bombyx mori chrysalides
T1 sequence (P00374 1-187): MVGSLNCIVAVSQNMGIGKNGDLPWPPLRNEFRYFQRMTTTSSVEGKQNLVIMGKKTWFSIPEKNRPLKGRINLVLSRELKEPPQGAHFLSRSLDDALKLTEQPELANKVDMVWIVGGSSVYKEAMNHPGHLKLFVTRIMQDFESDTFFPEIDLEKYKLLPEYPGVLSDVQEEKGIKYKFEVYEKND
Procedure: Natural and synthetic derivatives of tea catechins have shown to be good inhibitors of human DHFR [7, 11, 16, 18]. To determine the ability of natural and synthetic polyphenols to bind DHFR, we performed a structure-activity study by analyzing the binding of these polyphenols to DHFR using fluorescence quenching. Effective binding to free recombinant human DHFR (rHDHFR) was determined by measuring the decrease in enzyme fluorescence that occurs upon the formation of the enzyme-inhibitor complex. […] The dissociation constants of the synthetic compounds were on the same order as those of the natural analogues, indicating the high DHFR binding capacities of these new derivatives.
The dissociation constants for the binding of polyphenols to free recombinant human DHFR (rHDHFR) were determined by fluorescence titration in an automatic-scanning FluoroMax-3 (Jobin Ybon, Horiba, Edison, NJ, USA) spectrofluorometer with 1.0 cm light path cells and a 150 W mercury-xenon light source. The formation of a binary complex between the enzyme (2.5 × 10^−7 M) and the ligand (from 0 to 40 µM) was followed by measuring the quenching of the tryptophan fluorescence of the enzyme upon the addition of microliter volumes of a concentrated stock solution of ligand. Experiments were performed at pH 7.5 in a buffer containing 2-(N-morpholino)ethanesulfonic acid (Mes, 0.025 M), sodium acetate (0.025 M), tris(hydroxymethyl)aminomethane (Tris 0.05 M), and NaCl (0.1 M). The temperature was controlled at 25 °C using a Haake D1G circulating bath with a heater and cooler. Fluorescence emission spectra were recorded when the human DHFR fluorescence was excited at 290 nm, and titrations were performed as described elsewhere.

[3] = target: T2, human serum albumin (HSA) (Homo sapiens, UniProt P02768); test: HSA binding by fluorescence quenching
T2 construct: purchased Sigma-Aldrich
T2 sequence (P02768 25-609): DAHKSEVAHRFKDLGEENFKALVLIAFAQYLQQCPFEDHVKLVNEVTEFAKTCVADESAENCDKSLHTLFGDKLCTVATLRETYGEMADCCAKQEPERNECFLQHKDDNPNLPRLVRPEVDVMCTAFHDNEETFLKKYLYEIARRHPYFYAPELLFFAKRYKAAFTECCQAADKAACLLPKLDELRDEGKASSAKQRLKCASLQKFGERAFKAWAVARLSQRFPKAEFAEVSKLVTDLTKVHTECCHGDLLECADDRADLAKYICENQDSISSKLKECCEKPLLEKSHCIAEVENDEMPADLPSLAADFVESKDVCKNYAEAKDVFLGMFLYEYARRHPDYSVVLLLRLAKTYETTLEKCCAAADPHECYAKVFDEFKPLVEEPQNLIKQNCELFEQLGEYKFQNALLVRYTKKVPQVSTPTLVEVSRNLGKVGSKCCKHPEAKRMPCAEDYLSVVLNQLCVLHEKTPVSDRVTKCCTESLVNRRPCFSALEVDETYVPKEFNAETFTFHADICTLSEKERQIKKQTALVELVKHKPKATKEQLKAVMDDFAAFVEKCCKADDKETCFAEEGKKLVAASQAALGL
Procedure: Fluorescence measurements were made on an automatic scanning Perkin-Elmer LS50B spectrofluorometer with 1.0 cm light path cells equipped with a 150 W xenon (XBO) light source. […] A plot of log (F0-F)/F against log [Q] was used to determine the values of KA and n from the intercept and the slope, respectively. Binding of TMECG, EGCG, and EC to HSA was determined as specified for the BSA binding studies.

[4] = target: T3, bovine serum albumin (BSA) (Bos taurus, UniProt P02769); test: Competitive site-marker (warfarin, ibuprofen) binding to BSA; details: for Kd: Binding constant (KA), BSA, 25 °C
T3 construct: purchased Sigma-Aldrich
T3 sequence (P02769 25-607): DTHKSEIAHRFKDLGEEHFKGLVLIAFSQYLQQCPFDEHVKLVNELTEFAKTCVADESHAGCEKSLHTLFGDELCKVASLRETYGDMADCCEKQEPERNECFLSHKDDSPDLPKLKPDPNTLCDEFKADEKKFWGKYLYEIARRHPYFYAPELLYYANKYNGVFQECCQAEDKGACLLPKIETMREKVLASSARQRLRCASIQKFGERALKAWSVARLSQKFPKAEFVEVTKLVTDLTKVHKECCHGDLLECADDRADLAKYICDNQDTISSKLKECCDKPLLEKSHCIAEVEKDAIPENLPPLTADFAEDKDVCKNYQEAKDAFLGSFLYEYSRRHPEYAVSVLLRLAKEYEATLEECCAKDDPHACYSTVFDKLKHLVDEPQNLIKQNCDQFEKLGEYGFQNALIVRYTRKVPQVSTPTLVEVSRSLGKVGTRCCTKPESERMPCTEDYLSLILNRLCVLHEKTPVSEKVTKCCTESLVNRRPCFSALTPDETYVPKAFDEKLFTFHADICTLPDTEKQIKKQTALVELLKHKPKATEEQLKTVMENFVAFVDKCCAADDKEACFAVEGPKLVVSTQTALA
Procedure: Next, the site selective binding of both EGCG and TMCG to BSA was analyzed. The capability of serum albumins to bind to aromatic and heterocyclic compounds is largely dependent on the existence of two major binding regions, namely site-I and site-II [25]. Warfarin and ibuprofen are fluorescence probes whose primary binding sites to BSA are site-I and site-II, respectively.
To identify the binding sites of EGCG and TMCG in BSA, the displacements of warfarin and ibuprofen (known to bind at site I and site II, respectively) were followed fluorometrically. Equimolar solutions of BSA and warfarin (5 × 10^−6 M each) were mixed for 1 h and titrated with EGCG and TMCG in separate experiments. Similar solutions containing equimolar ibuprofen and BSA were prepared and separately titrated with EGCG and TMCG to identify the binding sites of EGCG and TMCG with BSA. Titration was followed fluorometrically using an excitation wavelength of 280 nm.

[5] = target: T3, bovine serum albumin (BSA); test: BSA binding by fluorescence quenching
Excerpt: Upon progressive additions of various concentrations of EGCG and TMCG to BSA, the emission intensity decreases, as shown in Figure 4(a). The quenching of the fluorescence intensity of BSA implies that the catechins bind at close proximity to the tryptophan and tyrosine residues and that the molecular arrangement of BSA is affected by the interactions. […] The binding constants (KA) for the BSA-EGCG and BSA-TMCG complexes are 1.54 × 10^7 M^−1 and 1.9 × 10^5 M^−1, respectively (Table 4), and their plots are shown in Figure 4(b). […] In light of these findings, it can be reasoned that the binding affinity to BSA is higher for the galloylated catechin than for the methylated one, which emphasises that the three phenolic groups can enhance hydrogen bonding between BSA and EGCG [25].
Fluorescence measurements were made on an automatic scanning Perkin-Elmer LS50B spectrofluorometer with 1.0 cm light path cells equipped with a 150 W xenon (XBO) light source. In all experiments, the fluorescence of BSA (5 × 10^−6 M) in 50 mM phosphate buffer of pH 7.5 was followed by excitation at 280 nm. The binding affinities of EGCG and TMCG with BSA in terms of binding constants were determined using the following equation [25]: log (F0−F)/F = log KA + n log [Q](1) where KA is the binding constant, n is the number of binding sites, F0 is the fluorescence intensity of free BSA and F is the consequent fluorescence upon the addition of catechins (Q). A plot of log (F0-F)/F against log [Q] was used to determine the values of KA and n from the intercept and the slope, respectively.

[6] = UV-visible absorption spectra at different pH (ionization state); format: physicochemical; details: for Effect of pH on absorption spectra: UV-visible spectra, pH range 5.0–9.0 for TMCG and TMECG
Procedure: It has been shown that the protonation state of methotrexate, trimethoprim, and pyrimethamine modulates the binding of these antifolates to DHFRs from several sources. […] The absorbance maximum at 278 nm undergoes a bathochromic displacement to 328 nm, which is greatest at alkaline pH (pH > 9.0).
To determine if the spectral changes in the SYCG and SYECG solutions with pH were due to an irreversible oxidation reaction or to a reversible protonation step, a pH titration experiment was carried out. An alkaline solution of SYCG and SYECG (pH 8.5) was acidified to pH 2.5 by the addition of dilute HCl. A change in the spectra was observed, indicating a reversible protonation reaction. The spectral changes with pH observed in SYCG and SYECG can be attributed to the hydroxyl group para on the ester-bonded gallate moiety. At acidic pH, these derivatives are mainly present as protonated species, whereas at basic pH or values near neutrality, these derivatives evolve toward the deprotonated species, which are stabilized by resonance (Scheme 3). […] As described, an important factor that decreases catechin bioavailability might be their inability to easily cross cellular membranes by passive diffusion. The presence of several hydroxyl groups in these molecules gives them a high hydrophilic character, which increases the difficulty of passing across lipid membranes.
Ultraviolet-visible absorption spectra of catechins at different pHs were recorded on a UV-Vis Perkin-Elmer Lambda-2 spectrophotometer with a spectral bandwidth of 1 nm at a scan speed of 60 nm s^−1. The experiments were performed in the same buffer as described for DHFR binding studies, and the ionic strength remained constant at an optimum value of 0.15 over the pH range that was used. The pH of the reaction was measured before and after the experiment.

[7] = Table 2, restates Table 1, read-out: KD, order of binding strengths to rHDHFR depending on D-ring substitution
[8] = pH 7.5, 25 °C, fluorescence titration, read-out: Dissociation constant KD of free rHDHFR
[9] = determined as for BSA binding studies, read-out: Binding affinity to HSA (KA) (converted)

SMILES | IC50 ([1]; Homo sapiens, SK-MEL-28, 144 h) [µM] | melting point [°C] | Kd [2, 7] [µM] | Kd [2, 8] [µM] | Effect of pH on absorption spectra [6] | further results
COc1cc(C(=O)O[C@H]2Cc3c(OC(C)=O)cc(OC(C)=O)cc3O[C@@H]2c2ccc(OC(C)=O)c(OC(C)=O)c2)cc(OC)c1OC(C)=O [ASYCG, 5,7,3’,4’,4’’-penta-O-acetyl-3-O-(3,5-dimethoxybenzoyl)-catechin] | 37.4 ± 4 | 88 to 93 |  |  |  | 
Oc1cc(O)c2c(c1)O[C@H](c1ccc(O)c(O)c1)[C@H](O)C2 [EC, epicatechin] |  |  |  |  |  | Kd [3, 9]: 312 µM
O=C(O[C@@H]1Cc2c(O)cc(O)cc2O[C@@H]1c1cc(O)c(O)c(O)c1)c1cc(O)c(O)c(O)c1 [EGCG, epigallocatechin-3-gallate, reference compound] |  |  |  |  |  | Kd ([4]; site marker: Blank): 0.0649 µM; Kd ([4]; site marker: Ibuprofen): 0.082 µM; Kd ([4]; site marker: Warfarin): 7.69 µM; Site selective binding to BSA ([4]; competition with warfarin (site-I) and ibuprofen (site-II)): higher specificity for site-I; Kd [5]: 0.0649 µM; Number of binding sites n ([5]; catechin-BSA complex, double logarithmic plot): approximately 1; Kd [3]: 3.85 µM
COc1cc(C(=O)O[C@H]2Cc3c(O)cc(O)cc3O[C@@H]2c2ccc(O)c(O)c2)cc(OC)c1OC(C)=O [MASYCG, 3-O-(4-acetoxy-3,5-dimethoxybenzoyl)-catechin] | 60.9 ± 6 | 118 to 122 |  |  |  | 

Continued, in another order:

IC50 ([1]; Homo sapiens, SK-MEL-28, 144 h) [µM] | melting point [°C] | Kd [2, 7] [µM] | Kd [2, 8] [µM] | Effect of pH on absorption spectra [6] | SMILES | further results
82.2 ± 8 |  | 0.56 | 0.56 ± 0.07 |  | O=C(O[C@H]1Cc2c(O)cc(O)cc2O[C@@H]1c1ccc(O)c(O)c1)c1cc(O)c(O)c(O)c1 [CG, catechin-3-gallate, reference compound] | 
> 100 |  | 0.81 | 0.81 ± 0.09 |  | O=C(O[C@@H]1Cc2c(O)cc(O)cc2O[C@@H]1c1ccc(O)c(O)c1)c1cc(O)c(O)c(O)c1 [ECG, epicatechin-3-gallate, reference compound] | 
126 ± 10 | 110 to 114 | 0.72 | 0.72 ± 0.1 | strongly affected by the pH | COc1cc(C(=O)OC2Cc3c(O)cc(O)cc3OC2c2ccc(O)c(O)c2)cc(OC)c1O (centres unmarked) [SYCG, 3-O-(4-hydroxy-3,5-dimethoxybenzoyl)-catechin] | Ionization state at physiologic pH [6]: partially in their ionic form
 | 120 to 123 | 0.77 | 0.77 ± 0.07 | strongly affected by the pH | COc1cc(C(=O)OC2Cc3c(O)cc(O)cc3OC2c2ccc(O)c(O)c2)cc(OC)c1O (centres unmarked) [SYECG, 3-O-(4-hydroxy-3,5-dimethoxybenzoyl)-epicatechin] | Ionization state at physiologic pH [6]: partially in their ionic form; IC50 [1]: 199 ± 12 µM
2.5 ± 0.6 |  | 2.1 | 2.1 ± 0.2 | no significant changes | COc1cc(C(=O)O[C@@H]2Cc3c(O)cc(O)cc3O[C@@H]2c2ccc(O)c(O)c2)cc(OC)c1OC [TMECG] | Kd [3, 9]: 23.8 µM
